# Tests used:
# [1] = target: T1, full-length hepatitis C viral protein NS3•4A (Hepatitis C virus genotype 1a, UniProt P27958); test: biochemical; set-up: species or system HCV sub-type strain 1a; conditions: Enzyme Assay 2 (HCV NS3 Peptide Cleavage Assay) activity, apparent Ki class
# T1 construct: hexa-histidine (N); made in house; host or cells: Sf9 insect cells (baculovirus, pVL1392)
# HCV NS3 protease domain = target: T2, HCV NS3 protease domain (Hepatitis C virus genotype 1b, UniProt Q9WMX2); test: biochemical; conditions: Enzyme Assay 1 (HCV NS3 Protease Domain Peptide Cleavage Assay) activity, apparent Ki class
# T2 construct: The first 181 amino acids of NS3 (residues 1027-1207 of the viral polyprotein); hexa-histidine (C); made in house; host or cells: E. coli BL21/DE3 pLysS
SMILES,Ki [1] [µM],Ki (HCV NS3 protease domain) [µM]
CCC[C@H](NC(=O)[C@@H]1C[C@]2(CC(c3csc(Cl)c3)=NO2)CN1C(=O)[C@@H](NC(=O)CC1CCCCC1)C(C)(C)C)C(=O)C(=O)NC1CC1 [Compound 62],0.1 to 0.5,0.1 to 0.5
CN(C)C(=O)C(=O)[C@H](CC1CCC1)NC(=O)[C@@H]1C[C@]2(CC(c3cccc(Cl)c3)=NO2)CN1C(=O)[C@@H](NC(=O)CC1CCCCC1)C(C)(C)C [Compound 63],> 0.5,> 0.5
CCC[C@H](NC(=O)[C@@H]1C[C@]2(CC(c3cccc(Cl)c3)=NO2)CN1C(=O)C1CCN(c2ccccc2)C1=O)C(=O)C(=O)NC1CC1 (stereo partly shown) [Compound 65],> 0.5,> 0.5
CCOc1c(F)cc(C2=NO[C@]3(C2)C[C@@H](C(=O)N[C@@H](CC2CC2)C(=O)C(N)=O)N(C(=O)[C@@H](NC(=O)CC2CCOCC2)C(C)(C)C)C3)cc1Cl [Compound 67],< 0.1,< 0.1
CCC[C@H](NC(=O)[C@@H]1C[C@]2(CC(c3cccc(Cl)c3)=NO2)CN1C(=O)[C@@H](NC(=O)CC1CCCCC1)C(C)(C)C)C(=O)C(=O)NCCc1c[nH]c2cc(OC)ccc12 [Compound 69],0.1 to 0.5,> 0.5
CCC[C@H](NC(=O)[C@@H]1C[C@]2(CC(c3cccc(Cl)c3)=NO2)CN1C(=O)[C@@H](NC(=O)CC1CCCCC1)C(C)(C)C)C(=O)C(=O)NCc1ccc(-n2cccn2)cc1 [Compound 73],0.1 to 0.5,> 0.5
CCC[C@H](NC(=O)[C@@H]1C[C@]2(CC(c3cc(Cl)c4c(c3)CCC(C)(C)O4)=NO2)CN1C(=O)[C@@H](NC(=O)CC1CCCCC1)C(C)(C)C)C(=O)C(=O)NC1CC1 [Compound 74],< 0.1,0.1 to 0.5
CCC[C@H](NC(=O)[C@@H]1C[C@]2(CC(c3cccc(Cl)c3)=NO2)CN1C(=O)[C@@H](NC(=O)CC1CCCCC1)C(C)(C)C)C(=O)C(=O)NCc1ccccc1 [Compound 77],< 0.1,0.1 to 0.5
CCC[C@H](NC(=O)[C@@H]1C[C@]2(CC(c3cccc(Cl)c3)=NO2)CN1C(=O)[C@@H](NC(=O)CC1CCCCC1)C(C)(C)C)C(=O)C(=O)N1CCC1 [Compound 79],< 0.1,0.1 to 0.5
CCC[C@H](NC(=O)[C@@H]1C[C@]2(CC(c3cccc(Cl)c3)=NO2)CN1C(=O)[C@@H](NC(=O)CC1CCCCC1)C(C)(C)C)C(=O)C(=O)Nc1cc(OC)ccc1OC [Compound 84],> 0.5,> 0.5
CC(C)(C)[C@H](NC(=O)CC1CCOCC1)C(=O)N1C[C@@]2(CC(c3cccc(Cl)c3)=NO2)C[C@H]1C(=O)NC(CC1CCC1)C(=O)C(=O)NC1CC1 (stereo partly shown) [Compound 87],0.1 to 0.5,0.1 to 0.5
CCC[C@H](NC(=O)[C@@H]1CC2(CC(c3cccc(Cl)c3)=NO2)CN1C(=O)[C@H](Cc1ccc(OC)cc1)NC(C)=O)C(=O)C(=O)NC1CC1 (stereo partly shown) [Compound 88],0.1 to 0.5,> 0.5
CCC[C@H](NC(=O)[C@@H]1C[C@]2(CC(c3cccc(Cl)c3)=NO2)CN1C(=O)[C@@H](NC(=O)CC1CCCCC1)C(C)(C)C)C(=O)C(=O)NCC1(c2ccc(OC)cc2)CCOCC1 [Compound 91],> 0.5,> 0.5
CCC[C@H](NC(=O)[C@@H]1C[C@]2(CC(c3cccc(Cl)c3)=NO2)CN1C(=O)[C@@H](NC(=O)C1CCCCC1)C(C)(C)C)C(=O)C(=O)NC1CC1 [Compound 93],< 0.1,0.1 to 0.5
CCC[C@H](NC(=O)[C@@H]1C[C@]2(CC(c3cccc(Cl)c3)=NO2)CN1C(=O)[C@@H](NC(=O)CC1CCCCC1)C(C)(C)C)C(=O)C(=O)Nc1ccc(C)c(C#N)c1 [Compound 96],0.1 to 0.5,> 0.5
CCC[C@H](NC(=O)[C@@H]1C[C@]2(CC(c3cccc(Cl)c3)=NO2)CN1C(=O)[C@H](CC(C)C)NC(C)=O)C(=O)C(=O)NC1CC1 [Compound 98],0.1 to 0.5,> 0.5
CCC[C@H](NC(=O)[C@@H]1C[C@]2(CC(c3cccc(Cl)c3)=NO2)CN1C(=O)[C@@H](NC(=O)CC1CCCCC1)C(C)(C)C)C(=O)C(=O)NC1CCCCC1 [Compound 99],> 0.5,> 0.5
CCC[C@H](NC(=O)[C@@H]1C[C@]2(CC(c3cccc(Cl)c3)=NO2)CN1C(=O)C(NS(=O)(=O)c1ccc(F)cc1)C(C)C)C(=O)C(=O)NC1CC1 (stereo partly shown) [Compound 100],> 0.5,> 0.5
CCC[C@H](NC(=O)[C@@H]1C[C@@]2(CC(c3cc(C)c(OC)c(Cl)c3)=NO2)CN1C(=O)[C@@H](NC(=O)CC1CCCCC1)C(C)(C)C)C(=O)C(=O)NC1CC1 [Compound 111],0.1 to 0.5,0.1 to 0.5
CCC[C@H](NC(=O)[C@@H]1C[C@]2(CC(c3cccc(Cl)c3)=NO2)CN1C(=O)[C@H](NC(=O)CC1CCCCC1)C(C)(C)C)C(=O)C(=O)N(CC)CC [Compound 113],> 0.5,> 0.5
C=C[C@@H]1C[C@]1(NC(=O)[C@@H]1C[C@]2(CC(c3cccc(Cl)c3)=NO2)CN1C(=O)[C@@H](NC(=O)CC1CCCCC1)C(C)(C)C)C(=O)NS(=O)(=O)NC1CC1 [Compound 115],0.1 to 0.5,> 0.5

SMILES,Ki [1] [µM],Ki (HCV NS3 protease domain) [µM]
CCC[C@H](NC(=O)[C@@H]1C[C@]2(CC(C(=O)c3ccccc3)=NO2)CN1C(=O)[C@@H](NC(=O)NC(C)(C)C)C(C)(C)C)C(=O)C(=O)NC1CC1 [Compound 119],0.1 to 0.5,0.1 to 0.5
CCC[C@H](NC(=O)[C@@H]1C[C@]2(CC(c3cccc(Cl)c3)=NO2)CN1C(=O)[C@@H](NC(=O)CC1CCCCC1)C(C)(C)C)C(=O)C(=O)NC(c1ccccc1)c1ccccn1 (stereo partly shown) [Compound 120],> 0.5,> 0.5
CCC[C@H](NC(=O)[C@@H]1C[C@]2(CC(c3cccc(Cl)c3)=NO2)CN1C(=O)[C@@H](NC(=O)CC1CCOC(C)(C)C1)C(C)(C)C)C(=O)C(=O)NC1CC1 (stereo partly shown) [Compound 121],< 0.1,0.1 to 0.5
CCC[C@H](NC(=O)[C@@H]1C[C@]2(CC(c3cccc(Cl)c3)=NO2)CN1C(=O)[C@@H](NC(=O)CC1CCCCC1)C(C)OC)C(=O)C(=O)NC1CC1 (stereo partly shown) [Compound 124],0.1 to 0.5,> 0.5
CCC[C@H](NC(=O)[C@@H]1C[C@]2(CC(c3cccc(Cl)c3)=NO2)CN1C(=O)[C@@H](NC(=O)CC1CCCCC1)[C@@H](C)c1ccccc1)C(=O)C(=O)NC1CC1 [Compound 125],0.1 to 0.5,0.1 to 0.5
CCC[C@H](NC(=O)[C@@H]1C[C@]2(CC(c3cccc(Cl)c3)=NO2)CN1C(=O)[C@@H](NC(=O)CC1CCCCC1)C(C)(C)C)C(=O)C(=O)NCc1cc(OC)cc(OC)c1 [Compound 127],0.1 to 0.5,0.1 to 0.5
C=CCOC(=O)N[C@H](C(=O)N1C[C@@]2(CC(c3cccc(Cl)c3)=NO2)C[C@H]1C(=O)N[C@]1(C(=O)NS(=O)(=O)C2CC2)C[C@H]1C=C)C(C)(C)C [Compound 130],< 0.1,0.1 to 0.5
CC(C)(C)[C@H](NC(=O)CC1CCCCC1)C(=O)N1C[C@@]2(CC(c3cncc(Cl)c3)=NO2)C[C@H]1C(=O)NC(CC1CCC1)C(=O)C(=O)NC1CC1 (stereo partly shown) [Compound 132],0.1 to 0.5,0.1 to 0.5
CCC[C@H](NC(=O)[C@@H]1C[C@]2(CC(c3cccc(Cl)c3)=NO2)CN1C(=O)[C@@H](NC(=O)CC1CCCCC1)C(C)(C)C)C(=O)C(=O)N1CC(OCC)C1 [Compound 133],0.1 to 0.5,0.1 to 0.5
CCC[C@H](NC(=O)[C@@H]1C[C@]2(CC(c3cc(Cl)cc4c3OCC4)=NO2)CN1C(=O)[C@@H](NC(=O)CC1CCCCC1)C(C)(C)C)C(=O)C(=O)NC1CC1 [Compound 134],< 0.1,0.1 to 0.5
CCC[C@H](NC(=O)[C@@H]1C[C@]2(CC(c3cc(F)c(OCC)c(Cl)c3)=NO2)CN1C(=O)[C@@H](NC(=O)CC1CCCCC1)C(C)(C)C)C(=O)C(=O)NC1CC1 [Compound 136],0.1 to 0.5,0.1 to 0.5
CCC[C@H](NC(=O)[C@@H]1C[C@]2(CC(c3cccc(Cl)c3)=NO2)CN1C(=O)[C@@H](NC(=O)CC1CCCCC1)C(C)(C)C)C(=O)C(=O)NC(C)Cc1c[nH]c2ccc(C(C)=O)cc12 (stereo partly shown) [Compound 138],> 0.5,> 0.5
CCC[C@H](NC(=O)[C@@H]1C[C@]2(CC(c3cccc(Cl)c3)=NO2)CN1C(=O)[C@@H](NC(=O)CC1CCCCC1)C(C)(C)C)C(=O)C(=O)NCC1COc2ccccc2O1 (stereo partly shown) [Compound 141],0.1 to 0.5,> 0.5
CCC[C@H](NC(=O)[C@@H]1C[C@]2(CC(c3cccc(Cl)c3)=NO2)CN1C(=O)[C@@H](NC(=O)CC1CCCCC1)C(C)(C)C)C(=O)C(=O)NCC(C)C [Compound 143],0.1 to 0.5,0.1 to 0.5
CCC[C@H](NC(=O)[C@@H]1C[C@]2(CC(c3cccc(Cl)c3)=NO2)CN1C(=O)[C@@H](NC(=O)CC1CCCCC1)C(C)(C)C)C(=O)C(=O)Nc1cccc(NS(C)(=O)=O)c1 [Compound 148],> 0.5,> 0.5
CCC[C@H](NC(=O)[C@@H]1C[C@]2(CC(c3cccc(Cl)c3)=NO2)CN1C(=O)C(NC(=O)CC1C[C@@H](C)O[C@H](C)C1)C(C)(C)C)C(=O)C(=O)NC1CC1 (stereo partly shown) [Compound 153],0.1 to 0.5,0.1 to 0.5
CCC[C@H](NC(=O)[C@@H]1C[C@]2(CC(c3cc(Cl)ccc3OC)=NO2)CN1C(=O)[C@@H](NC(=O)CC1CCCCC1)C(C)(C)C)C(=O)C(=O)NC1CC1 [Compound 158],< 0.1,< 0.1
C=C[C@@H]1C[C@]1(NC(=O)[C@@H]1C[C@]2(CC(c3cccc(Cl)c3)=NO2)CN1C(=O)[C@@H](NC(=O)CC1CCCCC1)C(C)(C)C)C(=O)NS(=O)(=O)C1CC1 [Compound 162],< 0.1,0.1 to 0.5
CC(C)(C)OC(=O)N[C@H]1CCCCC/C=C\[C@@H]2C[C@@]2(C(=O)NS(=O)(=O)C2CC2)NC(=O)[C@@H]2C[C@]3(CC(C(=O)c4ccccc4)=NO3)CN2C1=O [Compound 163],< 0.1,< 0.1
CCC[C@H](NC(=O)[C@@H]1C[C@]2(CC(c3cc(Cl)cnc3OC)=NO2)CN1C(=O)[C@@H](NC(=O)CC1CCCCC1)C(C)(C)C)C(=O)C(=O)NC1CC1 [Compound 165],< 0.1,0.1 to 0.5

# — patent US7964624B1, “Inhibitors of serine proteases” (priority 2005, dated 2011)
